Assay results as given in publication PMC8802628, “Selective activation of PFKL suppresses the phagocytic oxidative burst” (Cell, 2021).

Legend:
Assay in all cases: PISA of neutrophil lysates (Data S2)
Type in all cases: binding
Conditions in all cases: Comparison NA11_MidT-DMSO_MidT
[1] = target: T1, 14-3-3 protein gamma (YWHAG) (Homo sapiens, UniProt P61981)
T1 construct: endogenous in cells; host or cells: human neutrophil lysate
Method: (§1) Neutrophils (3 × 10^7) were treated with 50 nM PMA for 20 min. Cell were washed twice in D-PBS, resuspended in KB buffer (25 mM Tris-HCL pH 7.5, 1 mM DTT, 10 mM MgCl2) and frozen in liquid nitrogen. Lysates were prepared by 5-7 freeze-thaw cycles in KB buffer. Protein concentration was determined via Bradford assay and lysates were incubated on ice for 30 min with either 10 μM NA-11 or DMSO vehicle. Samples were analyzed in two formats: (1) classical thermal proteome profiling (TPP) with full melting curves using 16-plex TMT labeling (8 temperatures between 37-65°C), and (2) Proteome Integral Solubility Alteration (PISA) assay with aggregated protein abundance from a defined temperature range using 10-plex TMT labeling (Five replicates 44-58°C). Aliquots (5 mg) were divided and heated at 8 temperatures in the 37-65°C range or 6 temperatures in the 44-58°C range, and cooled on ice for 3 min.
(§2) For TPP, heated lysates from different temperatures were kept separate. For PISA, lysates from different temperatures were combined based on treatment. Samples were centrifuged at 20,000 x g for 20 min at 4°C and supernatants were isolated for analysis. Proteins were denatured in 4 M urea, reduced with 5 mM DTT at 60°C for 20 min, and alkylated with 11 mM iodoacetamide (IAA) for 20 min. Urea was diluted to 2 M with 20 mM HEPES. Proteins were digested with Lys-C (Wako) diluted 1:50 for 3 h at 37°C, and then with Trypsin (PTMScan) diluted 1:100 overnight at 37°C. Peptides were cleaned on C18 Sep-Pak cartridges, 50 mg absorbent (Waters, WAT054960) and labeled with 16-plex TMTpro or 10-plex TMT. Labeled peptides were pooled, cleaned on a C18 Sep-Pak cartridge, and fractionated by offline high pH reversed phase separation and combined into 12 fractions in checkerboard fashion. Peptides were cleared on C18 STAGE-tips before mass spectrometry.
(§3) For the classical TPP, quantitative data from each temperature were used to generate a thermal titration curve and calculate a melting point. PSM level quantitation was log2 transformed and summarized to protein level by aggregating all PSMs from the same primary Uniprot reference, and systematic variation between the treatments was normalized at each temperature. A thermal titration curve was fitted from experimental data for each protein and for each treatment condition using Self-Starting Nls Four-Parameter Logistic Model from stats v3.6.2 in R. Melting point was calculated at the 50% between intensity at the lowest temperature and intensity at the highest temperature. A quality score is calculated for each protein by evaluating R squares, curve slopes and similarity in slopes between the two fitted curves. For the PISA experiment, quantitative data from each replicate of combined temperatures were used to calculate fold changes and p values between the treatment conditions. Quantified PSMs were normalized based on global median abundance among all PSMs, and then summarized to the protein level using statistical package MSstats_3.14.1 ([Choi et al., 2014]). Fold changes and p values were calculated between pre-defined treatment groups by the MSstats package. For the photoaffinity probe based pull-down study, pairwise differential analysis was applied to treatment groups. TMT abundance of all PSMs was aggregated to their respective proteins. Ratios between each treatment group were calculated based on their mean protein abundance from replicates and a Student’s t test was applied to each pair to calculate p values. […]

[2] = target: T2, 14-3-3 protein epsilon (YWHAE) (Homo sapiens, UniProt P62258)
T2 construct: endogenous in cells; host or cells: human blood leukocytes, labelled live
T2 sequence (P62258 whole entry): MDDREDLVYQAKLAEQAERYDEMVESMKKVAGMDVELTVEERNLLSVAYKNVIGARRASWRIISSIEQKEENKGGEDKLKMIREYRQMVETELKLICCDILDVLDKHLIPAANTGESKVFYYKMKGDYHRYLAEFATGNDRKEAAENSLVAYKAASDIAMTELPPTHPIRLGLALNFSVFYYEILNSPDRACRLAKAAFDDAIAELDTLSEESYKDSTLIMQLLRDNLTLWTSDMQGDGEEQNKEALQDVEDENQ
Method: as §1, §2, §3

[3] = target: T3, 14-3-3 protein theta (YWHAQ) (Homo sapiens, UniProt P27348)
T3 construct: endogenous in cells; host or cells: human neutrophil lysate
T3 sequence (P27348 whole entry): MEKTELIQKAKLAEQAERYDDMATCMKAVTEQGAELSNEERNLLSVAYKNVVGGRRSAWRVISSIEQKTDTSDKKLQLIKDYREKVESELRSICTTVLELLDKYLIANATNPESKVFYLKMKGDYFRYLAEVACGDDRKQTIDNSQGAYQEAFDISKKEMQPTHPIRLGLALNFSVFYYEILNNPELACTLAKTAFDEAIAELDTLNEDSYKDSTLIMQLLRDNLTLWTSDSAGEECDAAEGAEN
Method: as §1, §2, §3

[4] = target: T4, 14-3-3 protein eta (YWHAH) (Homo sapiens, UniProt Q04917)
T4 construct: endogenous in cells; host or cells: human neutrophil lysate
T4 sequence (Q04917 whole entry): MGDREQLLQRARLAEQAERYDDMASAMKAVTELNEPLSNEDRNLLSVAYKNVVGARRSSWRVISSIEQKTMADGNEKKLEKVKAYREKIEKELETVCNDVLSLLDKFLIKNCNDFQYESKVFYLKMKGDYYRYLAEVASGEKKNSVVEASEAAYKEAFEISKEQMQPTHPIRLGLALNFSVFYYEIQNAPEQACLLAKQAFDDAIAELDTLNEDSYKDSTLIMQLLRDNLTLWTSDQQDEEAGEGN
Method: as §1, §2, §3

[5] = target: T5, 14-3-3 protein beta/alpha (YWHAB) (Homo sapiens, UniProt P31946)
T5 construct: endogenous in cells; host or cells: human blood leukocytes, labelled live
T5 sequence (P31946 whole entry): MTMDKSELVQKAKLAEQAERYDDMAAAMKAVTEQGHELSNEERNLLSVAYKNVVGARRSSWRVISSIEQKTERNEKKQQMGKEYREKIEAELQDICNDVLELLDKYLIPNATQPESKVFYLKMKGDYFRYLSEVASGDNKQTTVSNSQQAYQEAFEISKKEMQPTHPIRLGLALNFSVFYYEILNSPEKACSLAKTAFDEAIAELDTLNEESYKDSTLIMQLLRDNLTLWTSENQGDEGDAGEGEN
Method: as §1, §2, §3

T1 sequence (P61981 whole entry): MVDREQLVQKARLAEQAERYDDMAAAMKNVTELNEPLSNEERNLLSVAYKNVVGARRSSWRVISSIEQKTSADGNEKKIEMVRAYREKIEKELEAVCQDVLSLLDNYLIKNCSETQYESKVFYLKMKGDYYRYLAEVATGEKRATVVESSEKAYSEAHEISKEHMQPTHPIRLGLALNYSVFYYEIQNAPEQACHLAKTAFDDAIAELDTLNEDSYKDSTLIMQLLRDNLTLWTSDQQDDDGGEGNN

**Q.** What does the source list for CC(=O)Nc1ccc2c(c1)OCc1cc(-c3ccccc3C#CCCCO)nn1C2 [NA-11]?
**A.** log2FC [1]: 0.0136; log2FC [2]: -0.04; log2FC [3]: -0.18; log2FC [4]: 0.0948; log2FC [5]: -0.07
